Test results from patent US6750217B2, “Benzenesulfonamide derivatives and their use as MEK inhibitors” (Warner-Lambert Company, priority 1999, dated 2004).

Key:
[1] = target: GST-MEK (p45MEK) / GST-MAPK (p44MAP kinase) (Homo sapiens, UniProt Q02750); test: APK IC50; cascade assay for inhibitors of the MAP kinase pathway; assay type: biochemical
Experimental: According to one aspect of the invention, the compounds are MEK inhibitors. MEK inhibition assays include the cascade assay for inhibitors of MAP kinase pathway described at column 6, line 36 to column 7, line 4 of U.S. Pat. No. 5,525,625 and the in vitro MEK assay at column 7, lines 4-27 of the same patent, the entire disclosure of which is incorporated by reference (see also Examples 5-10 below).
Incorporation of ^32P into myelin basic protein (MBP) is assayed in the presence of a glutathione S-transferase fusion protein containing p44MAP kinase (GST-MAPK) and a glutathione S-transferase fusion protein containing p45MEK (GST-MEK). The assay solution contains 20 mM HEPES, pH 7.4, 10 mM MgCl2, 1 mM MnCl2, 1 mM EGTA, 50,μM [γ-^32P]ATP, 10 μg GST-MEK, 0.5 μg GST-MAPK and 40 μg MBP in a final volume of 100 μL. Reactions are stopped after 20 minutes by addition of trichloroacetic acid and filtered through a GF/C filter mat. ^32P retained on the filter mat is determined using a 120S Betaplate. Compounds are assessed at 10 μM for ability to inhibit incorporation of ^32P.
To ascertain whether compounds are inhibiting GST-MEK or GST MAPK, two additional protocols are employed. In the first protocol, compounds are added to tubes containing GST-MEK, followed by addition of GST-MAPK, MBP and [β-^32P]ATP. In the second protocol, compounds are added to tubes containing both GST-MEK and GST-MAPK, followed by MBP and [β-^32P]ATP.
Compounds that show activity in both protocols are scored as MAPK inhibitors, while compounds showing activity in only the first protocol are scored as MEK inhibitors.

C26 Cells = test: C26 Cells; assay type: cell-based

GST-MEK (p45MEK) / GST-MAPK (p44MAP kinase), sequence (Q02750 whole entry): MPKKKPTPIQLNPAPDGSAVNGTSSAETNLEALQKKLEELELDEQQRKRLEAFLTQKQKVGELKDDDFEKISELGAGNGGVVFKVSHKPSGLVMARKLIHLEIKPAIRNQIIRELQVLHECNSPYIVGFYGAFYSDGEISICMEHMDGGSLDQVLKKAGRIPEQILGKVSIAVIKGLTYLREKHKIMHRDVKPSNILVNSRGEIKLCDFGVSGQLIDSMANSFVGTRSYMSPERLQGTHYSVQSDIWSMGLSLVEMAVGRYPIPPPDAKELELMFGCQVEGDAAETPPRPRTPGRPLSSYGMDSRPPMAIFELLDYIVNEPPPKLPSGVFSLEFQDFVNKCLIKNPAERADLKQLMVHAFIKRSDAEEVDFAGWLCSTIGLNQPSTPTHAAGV

Row | melting point | IC50 [1] | IC50 (C26 Cells) | Compound
1 | 222 to 225 °C (dec.) | 936 nM |  | CN(C)S(=O)(=O)c1cc(C(=O)NOCC2CC2)c(Nc2ccc(I)cc2Cl)c(F)c1F [PD 250253, 2-(2-Chloro-4-iodo-phenylamino)-N-cyclopropylmethoxy-5-dimethylsulfamoyl-3,4-difluoro-benzamide]
2 | 230 to 236 °C (dec.) | 122 nM | 9100 nM | NS(=O)(=O)c1cc(C(=O)NO)c(Nc2ccc(I)cc2Cl)c(F)c1F [PD 224213, 2-(2-Chloro-4-iodo-phenylamino)-3,4-difluoro-N-hydroxy-5-sulfamoyl-benzamide]
3 |  | > 3000 nM |  | COc1ccc(CN(Cc2ccc(OC)cc2)S(=O)(=O)c2cc(C(=O)NOCC3CC3)c(Nc3ccc(I)cc3Cl)c(F)c2F)cc1 [PD 218774, 5-[Bis-(4-methoxy-benzyl)-sulfamoyl]-2-(2-chloro-4-iodo-phenylamino)-N-cyclopropylmethoxy-3,4-difluoro-benzamide]
4 |  | > 3000 nM |  | CN(Cc1cccnc1)S(=O)(=O)c1cc(C(=O)O)c(Nc2ccc(I)cc2Cl)c(F)c1F [PD 219795, 2-(2-Chloro-4-iodo-phenylamino)-3,4-difluoro-5-(methyl-pyridin-3-ylmethyl-sulfamoyl)-benzoic acid]
5 |  | 283 nM | > 10000 nM | CN(C)S(=O)(=O)c1cc(C(=O)O)c(Nc2ccc(I)cc2Cl)c(F)c1F [PD 224339, 2-(2-Chloro-4-iodo-phenylamino)-5-dimethylsulfamoyl-3,4-difluoro-benzoic acid]
6 | 295 to 296 °C (dec.) | 781 nM |  | NS(=O)(=O)c1cc(C(=O)O)c(Nc2ccc(I)cc2Cl)c(F)c1F [PD 215730, 2-(2-Chloro-4-iodo-phenylamino)-3,4-difluoro-5-sulfamoyl-benzoic acid]
7 | 219 to 227 °C (dec.) | 186 nM | 1600 nM | NS(=O)(=O)c1cc(C(=O)NOCC2CC2)c(Nc2ccc(I)cc2Cl)c(F)c1F [PD 219622, 2-(2-Chloro-4-iodo-phenylamino)-N-cyclopropylmethoxy-3,4-difluoro-5-sulfamoyl-benzamide]
8 | 171 to 172 °C | 3700 nM |  | Cc1cc(I)ccc1Nc1c(C(=O)NOCC2CC2)cc(S(=O)(=O)N(C)C)c(F)c1F [PD 252745, N-Cyclopropylmethoxy-5-dimethylsulfamoyl-3,4-difluoro-2-(4-iodo-2-methyl-phenylamino)-benzamide]
9 |  | 222 nM |  | COC(=O)c1cc(S(=O)(=O)N(C)C)c(F)c(F)c1Nc1ccc(I)cc1Cl [PD 193846, 2-(2-Chloro-4-iodo-phenlylamino)-5-dimethylsulfamoyl-3,4-difluoro-benzoic acid methyl ester]
10 |  | 441 nM | > 10000 nM | Cc1cc(I)ccc1Nc1c(C(=O)O)cc(S(=O)(=O)N(C)C)c(F)c1F [PD 224340, 5-Dimethylsulfamoyl-3,4-difluoro-2-(4-iodo-2-methyl-phenylamino)-benzoic acid]
